Laboratory results published in patent US12410157B2, “Compound useful as toll-like receptor 7 activation inhibitor” (TOYAMA PREFECTURAL UNIVERSITY, priority 2020, dated 2025).
Where “and” joins values, the source holds several entries; their conditions need not be identical. Equal entries are not always repeated. Where two headings read alike, the source gives them in different places.

Columns and labels:
mouse TLR7 = biological target: T1, mouse TLR7 (Mus musculus, UniProt P58681); experiment: Inhibition of TLR7 activation in mouse TLR7-expressing NF-κB-GFP reporter Ba/F3 cells; assay type: cell-based; conditions: for TLR7 activation inhibitory activity, comparison in words: from IC50 of Table 3 / Table 5
T1 construct: expressed in transfected cells; host or cells: Ba/F3 cells (provided by Prof. Kensuke Miyake, University of Tokyo)
T1 sequence (P58681 27-1050): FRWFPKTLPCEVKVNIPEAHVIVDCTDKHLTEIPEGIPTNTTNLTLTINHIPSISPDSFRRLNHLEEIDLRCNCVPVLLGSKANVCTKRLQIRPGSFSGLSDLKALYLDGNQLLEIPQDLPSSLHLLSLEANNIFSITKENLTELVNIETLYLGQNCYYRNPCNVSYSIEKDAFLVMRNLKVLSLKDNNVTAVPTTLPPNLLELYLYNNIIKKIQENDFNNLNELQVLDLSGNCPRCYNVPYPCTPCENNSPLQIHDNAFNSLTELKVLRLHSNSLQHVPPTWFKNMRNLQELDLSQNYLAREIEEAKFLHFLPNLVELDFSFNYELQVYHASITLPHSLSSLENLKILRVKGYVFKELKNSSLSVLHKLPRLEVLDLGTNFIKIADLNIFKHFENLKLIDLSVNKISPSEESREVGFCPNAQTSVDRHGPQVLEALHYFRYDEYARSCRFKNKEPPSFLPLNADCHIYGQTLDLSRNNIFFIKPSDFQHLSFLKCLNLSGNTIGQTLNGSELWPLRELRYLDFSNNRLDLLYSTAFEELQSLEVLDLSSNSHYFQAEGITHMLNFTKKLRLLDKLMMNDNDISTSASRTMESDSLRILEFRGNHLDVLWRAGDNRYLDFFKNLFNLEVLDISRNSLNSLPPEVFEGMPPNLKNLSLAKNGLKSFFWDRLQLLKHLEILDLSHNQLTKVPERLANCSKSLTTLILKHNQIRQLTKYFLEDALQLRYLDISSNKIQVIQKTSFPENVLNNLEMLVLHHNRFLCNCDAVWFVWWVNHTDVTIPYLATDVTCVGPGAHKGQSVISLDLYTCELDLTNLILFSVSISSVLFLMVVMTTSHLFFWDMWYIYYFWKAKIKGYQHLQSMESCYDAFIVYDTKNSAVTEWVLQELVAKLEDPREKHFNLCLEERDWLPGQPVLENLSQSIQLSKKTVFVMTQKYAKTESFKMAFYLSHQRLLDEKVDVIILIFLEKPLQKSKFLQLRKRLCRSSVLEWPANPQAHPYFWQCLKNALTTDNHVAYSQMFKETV
Source text: Mouse TLR7-expressing reporter cells (Ba/F3 cells) were used to evaluate inhibition of TLR7 activation in each derivative and CB-7. These cells were provided by Professor Kensuke Miyake (Department of Infection Genetics, Institute of Medical Science, University of Tokyo). These cells have been transfected with a reporter gene that connects GFP gene downstream of the promoter region of NF-κB. Therefore, the expression of GFP is enhanced by the addition of a ligand for TLR7 expressed by the cells. The fluorescence intensity of GFP was attenuated by the addition of each derivative, and the inhibition of TLR7 activation by each derivative was evaluated as an indicator.
Loxoribine (Alexis Biochemicals) was used as the ligand for mouse TLR7. Gardiquimod (Invivogen) was used as the ligand for human TLR7.
Ba/F3 cells cultured in RPMI 1640 medium containing 10% (v/v) fetal calf serum (FCS), 50 U/mL penicillin, 50 μg/mL streptomycin, 2 mM L-glutamine, […] 2-mercaptoethanol, 1 ng/mL interleukin-3 were aliquoted into 96-well plates so that the number of cells per well was 1.0×10^5 cells/100 μL. 50 μL of each derivative or CB-7, prepared to final concentrations of 1, 5, 10, 25, 50, and 100 µM, was added to each well. 96-well plates were incubated at 37° C. for 30 minutes in the presence of 5% CO2. Next, 250 μg/mL Roxoribin was added to each well and incubated for 18 hours. At the end of incubation, cells were washed with PBS (FACS buffer) containing 2.5% (v/v) FCS and suspended in 200 μL of FACS buffer containing 25 μg/mL […] for each cell. GFP fluorescence intensities of the cells were analyzed by flow cytometry. Flow cytometry measurement was performed on a FACSCanto™ II (Becton Dickinson) and data were analyzed with FlowJo software (Tree Star). The MFI (%) upon stimulation with roxoribin in the presence of […] derivatives or CB-7 was calculated using the MFI upon stimulation with roxoribin alone as 100%, and then IC50 (chemical compound concentration that inhibits activity by 50%) was calculated by logistic regression analysis.
The evaluation of the TLR7 activation inhibition by B2-24-4-5A·HCOOH was performed by the method described in Example 2. CB-7 and B2-24-4·HCl were used as controls.

[1] = tested on: Cytochrome P450 (CYP), mouse liver microsomes; experiment: Metabolic stability (CYP) using mouse liver microsomes, HPLC; assay type: in vitro ADME; conditions: for Drug metabolism mainly by CYPs compared to CB-7: words; for Area (%) of peak: LC-UV (220 nm)
Protocol: For CB-7, B2-24, and B2-5A, 10 mg/mL DMSO solution was used. Each chemical compound was diluted with acetonitrile to 0.1 mg/mL, which was used as the analytical standard. Mouse liver microsomal fractions were rapidly thawed in a warm bath at 37° C. and kept on ice. Reaction buffer containing CYP cofactor was prepared on ice and mixed with the microsomal fractions. The reaction solution was preincubated at 37° C. for 5 minutes, and then the test substance solution was added and mixed well by pipetting. The volume of the reaction solution was 200 μL and the final concentration of the test substance was 0.1 mg/mL. The reaction solution was incubated at 37° C. for 30 minutes or 2 hours, and the reaction was stopped by adding 3 times the volume of acetonitrile and vortexing. After the reaction was stopped, the samples were centrifuged, and each supernatant was separated and dried in an evaporator. 50 μL of 50% acetonitrile solution was added to each solidified sample, and each sample was re-dissolved by vortexing for 5 minutes. Each redissolved solution was centrifuged, and each supernatant was subjected to HPLC analysis using a HITACHI Lachrom ELITE (HITACHI) as a HPLC system and COSMOSIL 5C18-MS-II, 4.6 mmI.D.×150 mm (nacalai tesque Co.) as a column.
Metabolic stability analysis of CB-7 and B2-24-4-5A·HCOOH was performed by the method of Example 5.

[2] = Plasma concentration in normal mice after oral administration; assay type: in vivo, mice (C57BL/6N); conditions: C57BL/6N mice, 1 mg orally, LC/MS/MS
Protocol: Plasma concentrations of CB-7 or B2-24-4-5A·HCOOH were measured in normal mice (C57BL/6N, 11 weeks old, female) after oral administration. 1 mg of CB-7 or B2-24-4-5A·HCOOH was administered orally to mice C57BL/6N. After 0.5, 1, 2, 4, or 8 hours, blood was collected from mice C57BL/6N to prepare plasma. The concentration of CB-7 or B2-24-4-5A·HCOOH in the plasma was measured by LC/MS/MS.

[3] = Example 2, Ba/F3 reporter cells, loxoribine stimulation 18 hours, GFP MFI, read-out: IC50 of CB-7 derivatives with modified Areas a and b
[4] = Example 3, 0.1 mg/mL, 37° C., 30 minutes or 2 hours

SMILES	IC50 (mouse TLR7; [3])	TLR7 activation inhibitory activity, comparison in words (mouse TLR7)	Number of peaks detected by HPLC [1, 4]	Drug metabolism mainly by CYPs compared to CB-7 [1]	further results
C=C[C@]1(CO)CC[C@@H](C(=C)C)[C@H](c2ccc(CN3CCCC3)cc2)C1 [B2-24]	0.44 µM	higher TLR7 activation inhibitory activity than CB-7	4	improved drug metabolism mainly by CYPs compared to CB-7	
C=C[C@]1(CO)CC[C@@H](C(=C)C)[C@H](c2ccc(OC)cc2)C1 [CB-7, reference compound]	3.12 µM		7		IC50 (mouse TLR7; Example 5, Table 5, method of Example 2, read-out: IC50): 7.66 µM; Number of peaks detected by HPLC ([1]; Example 9): 9; Area (%) of peak ([1]; Example 9, 0 h): 100%; Area (%) of peak ([1]; Example 9, incubation 0.5 h): 65.3%; Area (%) of peak ([1]; Example 9, incubation 2.0 h): 41.6% and 41.2%; Plasma concentration after 8 hours [2]: could not be detected
C=C(C)[C@@H]1CC[C@]2(COC(=O)C2)C[C@H]1c1ccc(OC)cc1 [B2-5A]	2.43 µM	higher TLR7 activation inhibitory activity than CB-7	4	improved drug metabolism mainly by CYPs compared to CB-7	Predicted metabolic modifications (CYP) ([1]; Example 3): +O
C=C[C@]1(CO)CC[C@@H](C(=C)C)[C@H](c2ccc(Oc3ccccc3)cc2)C1 [B2-21]	> 50 µM				
C=C[C@]1(C(=O)OC)CC[C@@H](C(=C)C)[C@H](c2ccc(O)cc2)C1 [B2-27]	> 100 µM				
